Source: article PMC10818454, “The Development of an Oral Solution Containing Nirmatrelvir and Ritonavir and Assessment of Its Pharmacokinetics and Stability” (Pharmaceutics, 2024)
≈ marks a conversion by molar mass, not a printed value. Read-outs that look alike come from different tables or passages of the source.

Assays:
[1] = parameters: method as in PMID 36015346; conditions: cited from earlier work
[2] = Equilibrium solubility in water and buffers (saturated shake-flask, 37 °C, 24 h); format: physicochemical
Description: The solubility of active pharmaceutical ingredients (API) in water and buffers with various pH values (pH 1.2–pH 7.4) was investigated to guide formulation screening. The equilibrium solubility method was performed based on the saturated shake-flask solubility technique. An excess of each API was added into volumetric flasks containing the medium and placed in a thermostatic shaking chamber (HNY-2102C, Tianjin, China) for 24 h of continuous shaking (150 r/min) at 37 °C. The supernatant was filtered through a 0.45 μm PTFE filter membrane, and then an equal amount of methanol was added to prevent API precipitation. The concentrations were quantified using HPLC. Content analysis was performed using an HPLC system (Thermo Fisher Scientific, Waltham, MA, USA) using methanol:water (88:12, v/v) as the mobile phase. The injection volume of the filtered sample was 10 µL. Separation was performed using an Agilent C18 column (4.60 mm × 250 mm, 5 μm) with a mobile-phase flow rate of 1.0 mL/min. The detection wavelength was set at 203 nm.

[3] = Recrystallization inhibition by surfactants (solvent shift supersaturation); format: physicochemical; conditions: 180 min
Description: The solvent shift method was used to create supersaturation. […] The solution was mixed at 50 r/min and 37 °C. A 3 mL sample of the solution was obtained at predetermined time intervals for measurement and supplemented with an equal volume of fresh medium. […] All tests were performed in triplicate.
Particle size measurements were performed at different time points using a Malvern Nano ZSP instrument (Malvern, UK). All tests were performed at 25 °C.

[4] = Solubility in aqueous solutions of different surfactants (0.2% m/v); conditions: vs no surfactant
[5] = cited from earlier work
[6] = Solubility in organic solvents; format: physicochemical; conditions: organic solvent or mixture
Description: The solubility of NRV in organic solvents, including ethanol, propylene glycol, and ethyl acetate, was tested.

SARS-CoV-2 Mpro = tested on: SARS-CoV-2 Mpro; parameters: method as in PMID 20937904; conditions: cited from earlier work

CC(C)(C)[C@H](NC(=O)C(F)(F)F)C(=O)N1C[C@H]2[C@@H]([C@H]1C(=O)N[C@H](C#N)C[C@@H]1CCNC1=O)C2(C)C [NRV, (1R,2S,5S)-N-((1S)-1-Cyano-2-((3S)-2-oxopyrrolidin-3-yl)ethyl)-3-((2S)-3,3-dimethyl-2-(2,2,2-trifluoroacetamido)butanoyl)-6,6-dimethyl-3-azabicyclo [3.1.0] hexane-2-carboxamide]
Stability under oxidative and photolytic conditions [1]: stable
Stability under strongly acidic and alkaline conditions [1]: hydrolytic
solubility at 24 h ([2]; aqueous buffer, thermodynamic from solid, pH 2.0, 37 °C, read-out: Solubility (concentration, mean ± SD)): 983.2 ± 5.4 µg/mL (≈ 1970 µM)
solubility at 24 h ([2]; aqueous buffer, thermodynamic from solid, pH 3.8, 37 °C, read-out: Solubility (concentration, mean ± SD)): 974.7 ± 4.8 µg/mL (≈ 1950 µM)
solubility at 24 h ([2]; aqueous buffer, thermodynamic from solid, pH 4.5, 37 °C, read-out: Solubility (concentration, mean ± SD)): 973.5 ± 5.3 µg/mL (≈ 1950 µM)
solubility at 24 h ([2]; aqueous buffer, thermodynamic from solid, pH 6.8, 37 °C, read-out: Solubility (concentration, mean ± SD)): 957.8 ± 7.5 µg/mL (≈ 1920 µM)
solubility at 24 h ([2]; aqueous buffer, thermodynamic from solid, pH 7.4, 37 °C, read-out: Solubility (concentration, mean ± SD)): 998.8 ± 6.2 µg/mL (≈ 2000 µM)
solubility at 24 h ([2]; buffers pH 1.2–8.0, read-out: Solubility in each buffer): 950 to 1000 µg/mL (≈ 1900 to 2000 µM)
solubility at 24 h ([2]; thermodynamic from solid, pH 1.2, 37 °C, read-out: Solubility (concentration, mean ± SD)): 997.7 ± 6.5 µg/mL (≈ 2000 µM)
solubility at 24 h ([2]; water, 37 °C, read-out: Solubility in water): 953.1 ± 7.6 µg/mL (≈ 1910 µM)
Change of concentration of supersaturated solution vs original concentration ([3]; aqueous surfactant solutions, 37 °C): no significant alteration
Change of solubility in the presence of poloxamer [4]: no significant change
Change of solubility in the presence of HCO and Tween ([4]; p < 0.05): increased
BCS class [5]: II/IV
Logp (Table S1) ([5]; predictive, ref 1–3 (supplement)): 0.845
BCS classification (Table S1) ([5]; ref 1–3 (supplement)): BCS II / IV
Solubility in words (Table S1) ([5]; ref 1–3 (supplement)): low solubility in water and buffered aqueous media
solubility ([6]; ethanol, read-out: Solubility in ethanol (crude concentration)): 16500 to 33000 µg/mL (≈ 33000 to 66100 µM)
solubility ([6]; ethyl acetate, read-out: Solubility in ethyl acetate (crude concentration)): > 57000 µg/mL
solubility ([6]; propylene glycol, read-out: Solubility in propylene glycol (crude concentration)): < 1600 µg/mL

CC(C)c1nc(CN(C)C(=O)N[C@H](C(=O)N[C@@H](Cc2ccccc2)C[C@H](O)[C@H](Cc2ccccc2)NC(=O)OCc2cncs2)C(C)C)cs1 [RTV, 10-Hydroxy-2-methyl-5-(1-methylethyl)-1-[2-(1methylethyl)-4-thiazolyl]-3,6-dioxo-8,11-bis(phenylmethyl)-2,4,7,12-tetraazatridecan-13-oic acid, 5-thiazolylmethyl ester, [5S-(5R*,8R*,10R*,11R*)]]
Concentration of supersaturated solution during the experimental period ([3]; with HCO and Tween, p < 0.001 vs no surfactant): effectively sustained
Activity against SARS-CoV-2 Mpro (SARS-CoV-2 Mpro): inactive
BCS classification (Table S1) ([5]; ref 1–3 (supplement)): BCS II
